Like-named read-outs stand apart in the source and are kept apart here.
Tests used:
Format in all cases: cell-based, human
[1] = system: A549 (Lung Adenocarcinoma); assay: Cell viability analysis, lung cancer A549; conditions: Homo sapiens, A549, 72 h
[2] = system: TSGH-8301 (Urinary Bladder Carcinoma); assay: Cell viability analysis, bladder cancer TSGH-8301; conditions: Homo sapiens, 72 h
TOV-21G = assay: Cell viability analysis, ovarian cancer TOV-21G; conditions: Homo sapiens, TOV21G, 72 h; TOV-21G; repeated experiment; read-out: The results of antibiotic drug inhibiting cancer cell lines (cell viability analysis), TOV-21G
[3] = system: HL-60 (Acute Promyelocytic Leukemia); assay: Cell viability analysis, leukemia HL-60; conditions: Homo sapiens, HL-60, 72 h, drug 10 μM, 72 hours, WST-1, OD450 nm; read-out: cell viability (survival rate), HL-60
[4] = system: HeLa (Cervix Adenocarcinoma); assay: Cell viability analysis, cervical cancer HeLa; conditions: Homo sapiens, HeLa, 72 h, HeLa
AsPC-1 = assay: Cell viability analysis, pancreatic cancer AsPC-1; conditions: Homo sapiens, ASPC1, 72 h; AsPC-1; repeated experiment; read-out: The results of antibiotic drug inhibiting cancer cell lines (cell viability analysis), AsPC-1
[5] = system: LoVo (Colorectal Adenocarcinoma); assay: Cell viability analysis, colon cancer LoVo; conditions: Homo sapiens, LoVo, 72 h
T24 = assay: Cell viability analysis, bladder cancer T24; conditions: Homo sapiens, T-24, 72 h; T24; repeated experiment; read-out: The results of antibiotic drug inhibiting cancer cell lines (cell viability analysis), T24
cancer cell lines = assay: Cell viability analysis (WST-1) on cancer cell lines; conditions: drug 10 μM, 72 hours, WST-1; Table 3
[6] = system: AGS (Gastric Adenocarcinoma); assay: Cell viability analysis, gastric cancer AGS; conditions: Homo sapiens, 72 h
[7] = system: A375 (Amelanotic Melanoma); assay: Cell viability analysis, skin cancer A375; conditions: Homo sapiens, A-375, 72 h
[8] = system: BCC (basal cell carcinoma); assay: Cell viability analysis, skin cancer BCC; conditions: Homo sapiens, 72 h; BCC; repeated experiment; read-out: The results of antibiotic drug inhibiting cancer cell lines (cell viability analysis), BCC
[9] = system: MKN-45 (Gastric Adenocarcinoma); assay: Cell viability analysis, gastric cancer MKN-45; conditions: Homo sapiens, MKN-45, 72 h
[10] = system: MDA-MB-231 (Mammary Gland, Adenocarcinoma); assay: Cell viability analysis, breast cancer MDA-MB-231; conditions: Homo sapiens, MDA-MB-231, 72 h; MDA-MB231; repeated experiment; read-out: The results of antibiotic drug inhibiting cancer cell lines (cell viability analysis), MDA-MB231
[11] = system: PC3 (p53−) (Prostate Adenocarcinoma); assay: Cell viability analysis, prostate cancer PC3; conditions: Homo sapiens, 72 h
[12] = system: SAS (Tongue squamous cell carcinoma); assay: Cell viability analysis, tongue cancer SAS; conditions: Homo sapiens, 72 h; SAS; repeated experiment; read-out: The results of antibiotic drug inhibiting cancer cell lines (cell viability analysis), SAS
NIH: OVCAR-3 = assay: Cell viability analysis, ovarian cancer NIH: OVCAR-3; conditions: Homo sapiens, 72 h; NIH-OVCAR-3; repeated experiment; read-out: The results of antibiotic drug inhibiting cancer cell lines (cell viability analysis), NIH-OVCAR-3
[13] = system: Hep3B (hepatocellular carcinoma); assay: Cell viability analysis, hepatic cancer Hep3B; conditions: Homo sapiens, 72 h; Hep3B; repeated experiment; read-out: The results of antibiotic drug inhibiting cancer cell lines (cell viability analysis), Hep3B
BxPC-3 = assay: Cell viability analysis, pancreatic cancer BxPC-3; conditions: Homo sapiens, 72 h; BxPC-3; repeated experiment; read-out: The results of antibiotic drug inhibiting cancer cell lines (cell viability analysis), BxPC-3
[14] = system: HI650 (Lung Adenocarcinoma); assay: Cell viability analysis, lung cancer HI650; conditions: Homo sapiens, NCI-H1650, 72 h
U-2OS = assay: Cell viability analysis, osteosarcoma U-2OS; conditions: Homo sapiens, 72 h; U2OS; repeated experiment; read-out: The results of antibiotic drug inhibiting cancer cell lines (cell viability analysis), U2OS
[15] = system: MCF7 (Mammary Gland, Adenocarcinoma); assay: Cell viability analysis, breast cancer MCF7; conditions: Homo sapiens, MCF7, 72 h
[16] = system: HepG2 (Hepatocellular Carcinoma); assay: Cell viability analysis, hepatic cancer HepG2; conditions: Homo sapiens, HepG2, 72 h
[17] = system: C-33A (Cervical carcinoma); assay: Cell viability analysis, cervical cancer C-33A; conditions: Homo sapiens, 72 h; C-33A; repeated experiment; read-out: The results of antibiotic drug inhibiting cancer cell lines (cell viability analysis), C-33A

SMILES: Cc1ccc2c(Cl)cc(Cl)c(O)c2n1 [Chlorquinaldol]
- viability at 10 µM ([1]; A549, repeated experiment, read-out: The results of antibiotic drug inhibiting cancer cell lines (cell viability analysis), A549): 37.8%
- viability at 10 µM ([1]; drug 10 μM, 72 hours, WST-1, OD450 nm, read-out: cell viability (survival rate), A549): 54.5%
- viability at 10 µM ([2]; TSGH-8301, repeated experiment, read-out: The results of antibiotic drug inhibiting cancer cell lines (cell viability analysis), TSGH-8301): 87%
- viability at 10 µM ([2]; drug 10 μM, 72 hours, WST-1, OD450 nm, read-out: cell viability (survival rate), TSGH): 70.5%
- viability at 10 µM (TOV-21G): 40.1%
- viability at 10 µM [3]: 64.8%
- viability at 10 µM ([4]; repeated experiment, read-out: The results of antibiotic drug inhibiting cancer cell lines (cell viability analysis), HeLa): 64.9%
- viability at 10 µM ([4]; drug 10 μM, 72 hours, WST-1, OD450 nm, read-out: cell viability (survival rate), HeLa): 42.6%
- viability at 10 µM (AsPC-1): 62.8%
- viability at 10 µM ([5]; read-out: The results of antibiotic drug inhibiting cancer cell lines (cell viability analysis), LoVo, repeated experiment): 45.8%
- viability at 10 µM ([5]; read-out: cell viability (survival rate), LoVo, drug 10 μM, 72 hours, WST-1, OD450 nm): 62.8%
- viability at 10 µM (T24): 50.6%
- inhibition effect on different cancer cell lines (cancer cell lines): significant inhibition effect
- viability at 10 µM ([6]; AGS, repeated experiment, read-out: The results of antibiotic drug inhibiting cancer cell lines (cell viability analysis), AGS): 53.9%
- viability at 10 µM ([6]; drug 10 μM, 72 hours, WST-1, OD450 nm, read-out: cell viability (survival rate), AGS): 35.7%
- viability at 10 µM ([7]; A375, repeated experiment, read-out: The results of antibiotic drug inhibiting cancer cell lines (cell viability analysis), A375): 35.5%
- viability at 10 µM ([7]; drug 10 μM, 72 hours, WST-1, OD450 nm, read-out: cell viability (survival rate), A375): 43%
- viability at 10 µM [8]: 43%
- viability at 10 µM ([9]; MKN-45, repeated experiment, read-out: The results of antibiotic drug inhibiting cancer cell lines (cell viability analysis), MKN-45): 92.4%
- viability at 10 µM ([9]; drug 10 μM, 72 hours, WST-1, OD450 nm, read-out: cell viability (survival rate), MKN-45): 75.4%
- viability at 10 µM [10]: 65%
- viability at 10 µM ([11]; PC-3, repeated experiment, read-out: The results of antibiotic drug inhibiting cancer cell lines (cell viability analysis), PC-3): 66.4%
- viability at 10 µM ([11]; drug 10 μM, 72 hours, WST-1, OD450 nm, read-out: cell viability (survival rate), PC3): 68.4%
- viability at 10 µM [12]: 20.6%
- viability at 10 µM (NIH: OVCAR-3): 78.1%
- viability at 10 µM [13]: 105%
- viability at 10 µM (BxPC-3): 53.9%
- viability at 10 µM ([14]; H1650, repeated experiment, read-out: The results of antibiotic drug inhibiting cancer cell lines (cell viability analysis), H1650): 75.2%
- viability at 10 µM ([14]; drug 10 μM, 72 hours, WST-1, OD450 nm, read-out: cell viability (survival rate), H1650): 59.6%
- viability at 10 µM (U-2OS): 32.4%
- viability at 10 µM ([15]; MCF-7, repeated experiment, read-out: The results of antibiotic drug inhibiting cancer cell lines (cell viability analysis), MCF-7): 30.2%
- viability at 10 µM ([15]; drug 10 μM, 72 hours, WST-1, OD450 nm, read-out: cell viability (survival rate), MCF7): 47.8%
- viability at 10 µM ([16]; HepG2, repeated experiment, read-out: The results of antibiotic drug inhibiting cancer cell lines (cell viability analysis), HepG2): 82%
- viability at 10 µM ([16]; drug 10 μM, 72 hours, WST-1, OD450 nm, read-out: cell viability (survival rate), HepG2): 82.3%
- viability at 10 µM [17]: 47.5%
